Source: patent US9617577B2, “Bacillus pumilus bilirubin oxidase and applications thereof” (CENTRE NATIONAL DE LA RECHERCHE SCIENTIFIQUE, priority 2010, dated 2017)

How the values were obtained:
[1] = target: T1, Bacillus pumilus bilirubin oxidase (BOD), wild type, strain SAFR-032, SEQ ID No. 2 (C-terminal 6xHis tag) (Bacillus pumilus, UniProt A8FAG9); test: Steady-state kinetics of conjugated bilirubin oxidation by B. pumilus BOD; format: biochemical; settings: 37° C., 50 mM sodium phosphate buffer, pH 4.8
T1 sequence (A8FAG9 with tags, fused parts or gaps): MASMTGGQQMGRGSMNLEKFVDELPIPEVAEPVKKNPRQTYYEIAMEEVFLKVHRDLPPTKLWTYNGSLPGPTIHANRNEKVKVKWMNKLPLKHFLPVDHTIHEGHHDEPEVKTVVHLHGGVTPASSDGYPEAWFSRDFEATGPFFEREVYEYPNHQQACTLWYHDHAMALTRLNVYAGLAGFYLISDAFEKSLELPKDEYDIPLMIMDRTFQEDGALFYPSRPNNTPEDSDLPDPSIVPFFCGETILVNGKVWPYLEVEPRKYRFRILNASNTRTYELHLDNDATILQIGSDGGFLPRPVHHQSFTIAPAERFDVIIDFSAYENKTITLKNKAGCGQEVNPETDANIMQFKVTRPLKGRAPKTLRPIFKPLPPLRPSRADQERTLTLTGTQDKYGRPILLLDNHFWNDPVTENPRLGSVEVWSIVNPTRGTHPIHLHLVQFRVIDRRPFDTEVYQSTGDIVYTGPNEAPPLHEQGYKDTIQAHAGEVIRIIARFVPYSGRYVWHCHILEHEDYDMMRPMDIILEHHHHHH

[2] = target: T1, Bacillus pumilus bilirubin oxidase (BOD), wild type, strain SAFR-032, SEQ ID No. 2 (C-terminal 6xHis tag); test: Steady-state kinetics of 2,6-dimethoxyphenol (DMP) oxidation by B. pumilus BOD; settings: 37° C., 50 mM sodium phosphate buffer, pH 6.8
Method: (§3) The experiments are carried out at 37° C. on a Varian spectrophotometer in a 50 mM sodium phosphate buffer, pH 6.8. The 2,6-dimethoxyphenol concentration varies in the test from 0 to 4000 μM. The test, triggered by adding the enzyme, consists in following the oxidation of the DMP at 468 nm by coloroimetric change (ε468nm=14.8 mM^−1 cm^−1).

[3] = target: T1, Bacillus pumilus bilirubin oxidase (BOD), wild type, strain SAFR-032, SEQ ID No. 2 (C-terminal 6xHis tag); test: Activity (SGZ oxidation) as a function of the presence of DTT or of EDTA; format: biochemical; settings: 50 μM SGZ, 37° C., pH 6.2, read-out: Relative activity
Method: (§1) The concentration of SGZ, diluted in methanol, is fixed in the test at 50 μM. […] Table III below collates the results obtained, presented in relative activity form.

[4] = target: T1, Bacillus pumilus bilirubin oxidase (BOD), wild type, strain SAFR-032, SEQ ID No. 2 (C-terminal 6xHis tag); test: Steady-state kinetics of syringaldazine (SGZ) oxidation by B. pumilus BOD; format: biochemical; settings: 37° C., 50 mM citrate/phosphate buffer, pH 6.2; model with competitive inhibition; in 1/s
Method: (§2) The SGZ concentration, diluted in methanol, varies in the test from 0 to 300 μM.

Bacillus pumilus BOD [5] = test: Activity as a function of the presence of urea (ABTS oxidation); settings: urea 0 to 6 M, 100 mM citrate/phosphate buffer, pH 3
Method: The experiments are carried out at 37° C. on a Varian spectrophotometer in a 0.1 M citrate/phosphate buffer, pH 3. […] The test is triggered by adding enzyme.

Bacillus pumilus BOD [6] = test: Activity as a function of the presence of DTT or EDTA (SGZ oxidation); format: biochemical; settings: SGZ 50 μM, 37° C., pH 6.2
Method: as §1

[7] = substrate: C=CC1=C(C)/C(=C/c2[nH]c(Cc3[nH]c(/C=C4\NC(=O)C(C)=C4C=C)c(C)c3CCC(=O)O)c(CCC(=O)O)c2C)NC1=O; test: Steady-state kinetics of unconjugated bilirubin oxidation by B. pumilus BOD; format: biochemical, Bacillus pumilus; settings: other: 37° C., 50 mM sodium phosphate buffer, pH 7
[8] = substrate: COc1cccc(OC)c1O; test: purified protein, by the assay type; settings: other: 37° C., 50 mM sodium phosphate buffer, pH 6.8
Method: as §3

[9] = substrate: COc1cc(/C=N/N=C/c2cc(OC)c(O)c(OC)c2)cc(OC)c1O; test: Steady-state kinetics of syringaldazine (SGZ) oxidation by B. pumilus BOD; format: biochemical, Bacillus pumilus; settings: other: 37° C., 50 mM citrate/phosphate buffer, pH 6.2, model with competitive inhibition
Method: as §2

[10] = Remazol Brilliant Blue R (RBBR) discoloration activity; format: biochemical; settings: RBBR 80 mg.l^−1, 37° C., 50 mM potassium phosphate buffer, pH 6, absence or presence of 10 μM ABTS
Method: The RBBR concentration is fixed at 80 mg.l^−1 in each tank. The test, triggered by adding 10 μg of enzyme, consists in following, over time, the discoloration of the RBBR dye at 593 nm.

[11] = Specific activity for ABTS; format: biochemical; settings: BOD according to the invention
Method: The enzyme is diluted so as to measure a slope between 0.05 and 0.3 OD420nm/min.

[12] = Stability of the enzyme as a function of temperature; format: physicochemical; settings: incubation at 80° C., residual activity on ABTS
Method: The enzyme is preincubated at a concentration of 10 mg/ml in a dry bath at 80° C. […] The test is triggered by adding enzyme.

For conjugated bilirubin, the Km [1] was 35.1 µM and the kcat [1] was 66.8 s⁻¹.

In the case of `COc1cccc(OC)c1O` [DMP, 2,6-Dimethoxyphenol], the kss [2] is reported as 57.3 s⁻¹.

Work on `OC(CS)C(O)CS` (centres unmarked) [DTT] yielded an activity at 1 µM ([3]; DTT 0.001 mM) of 99 ± 4%, an activity at 5 µM ([3]; DTT 0.005 mM) of 93 ± 2% and an activity at 10 µM ([3]; DTT 0.01 mM) of 93 ± 4%. The activity at 15 µM ([3]; DTT 0.015 mM) was 94 ± 3%, the activity at 30 µM ([3]; DTT 0.03 mM) was 85 ± 1% and the activity at 50 µM ([3]; DTT 0.05 mM) was 81 ± 4%.

`COc1cc(/C=N/N=C/c2cc(OC)c(O)c(OC)c2)cc(OC)c1O` [SGZ, Syringaldazine] gave a kcat [4] of 116.1.

In the case of `NC(N)=O` [urea], the “effect of urea on BOD activity (ABTS oxidation)” value (Bacillus pumilus BOD [5]; 25° C.) is reported as “activating effect” and the “effect of urea on BOD activity (ABTS oxidation)” value (Bacillus pumilus BOD [5]; 37° C.) is reported as “not found”.

In the case of `O[C@@H](CS)[C@@H](O)CS` [DTT], the “Relative activity (%)” value (Bacillus pumilus BOD [6]; DTT 0.001 mM) is reported as 99 ± 4%, the “Relative activity (%)” value (Bacillus pumilus BOD [6]; DTT 0.005 mM) is reported as 93 ± 2% and the “Relative activity (%)” value (Bacillus pumilus BOD [6]; DTT 0.01 mM) is reported as 93 ± 4%. For the same molecule, the “Relative activity (%)” value (Bacillus pumilus BOD [6]; DTT 0.015 mM) was 94 ± 3%, the “Relative activity (%)” value (Bacillus pumilus BOD [6]; DTT 0.03 mM) was 85 ± 1% and the “Relative activity (%)” value (Bacillus pumilus BOD [6]; DTT 0.05 mM) was 81 ± 4%.

With `O=C(O)CN(CCN(CC(=O)O)CC(=O)O)CC(=O)O` [EDTA] the activity at 100 µM ([3]; EDTA 0.1 mM) was 97 ± 1%, the activity at 1000 µM ([3]; EDTA 1 mM) was 99 ± 5% and the activity at 10000 µM ([3]; EDTA 10 mM) was 95 ± 1%. It also gave an activity at 25000 µM ([3]; EDTA 25 mM) of 98 ± 3%, an activity at 50000 µM ([3]; EDTA 50 mM) of 99 ± 4% and an activity at 75000 µM ([3]; EDTA 75 mM) of 95 ± 2%. For the same molecule, the activity at 100000 µM ([3]; EDTA 100 mM) was 95 ± 1%, the activity at 125000 µM ([3]; EDTA 125 mM) was 89 ± 3% and the “Relative activity (%)” value (Bacillus pumilus BOD [6]; EDTA 0.1 mM) was 97 ± 1%. For the same molecule, the “Relative activity (%)” value (Bacillus pumilus BOD [6]; EDTA 1 mM) was 99 ± 5%, the “Relative activity (%)” value (Bacillus pumilus BOD [6]; EDTA 10 mM) was 95 ± 1% and the “Relative activity (%)” value (Bacillus pumilus BOD [6]; EDTA 25 mM) was 98 ± 3%. For the same molecule, the “Relative activity (%)” value (Bacillus pumilus BOD [6]; EDTA 50 mM) was 99 ± 4%, the “Relative activity (%)” value (Bacillus pumilus BOD [6]; EDTA 75 mM) was 95 ± 2% and the “Relative activity (%)” value (Bacillus pumilus BOD [6]; EDTA 100 mM) was 95 ± 1%. The “Relative activity (%)” value (Bacillus pumilus BOD [6]; EDTA 125 mM) was 89 ± 3%.

B1: Bacillus pumilus bilirubin oxidase (BOD), wild type, strain SAFR-032, SEQ ID No. 2 (C-terminal 6xHis tag) (Bacillus pumilus SAFR-032) (protein)
chain: T1 sequence (A8FAG9 with tags, fused parts or gaps)
Molecule B1 has a Km [7] of 22 µM, a kcat [7] of 70 s⁻¹ and a Km [8] of 822 µM. It also gave a Km [9] of 45.6 µM.

B2: Bacillus pumilus BOD: wild-type bilirubin oxidase of Bacillus pumilus strain SAFR032, SEQ ID No. 2, produced in E. coli with C-terminal 6HIS tag (protein, listed as Bacillus pumilus)
chain: T1 sequence (A8FAG9 with tags, fused parts or gaps)
modifications: C-terminal 6His tag
With B2 the “discolouring activity on dyes used in the textile industry” value [10] was “discolouring activity”, the “specific activity for ABTS” value [11] was 375 U/mg and the heat stability [12] was “very good heat stability”.
